From ChEMBL document CHEMBL1649544, “Novel ABC transporter gene, vga(C), located on a multiresistance plasmid from a porcine methicillin-resistant Staphylococcus aureus ST398 strain” (2009)
≈ marks a conversion by molar mass, not a printed value.

Columns and labels:
Type in all cases: functional
Staphylococcus aureus [1] = assay: Antibacterial activity against Staphylococcus aureus RN4220 by CLSI method
Staphylococcus aureus [2] = assay: Antibacterial activity against Staphylococcus aureus RN4220 harboring aadD, tet(L), dfrK and vga(C) gene by CLSI method
Staphylococcus aureus [3] = assay: Antibacterial activity against Staphylococcus aureus RN4220 harboring tet(L), dfrK gene by CLSI method
Staphylococcus aureus [4] = assay: Antibacterial activity against Staphylococcus aureus RN4220 harboring aadD and tet(L) gene by CLSI method

Structure (SMILES) | MIC (Staphylococcus aureus [1]) | MIC (Staphylococcus aureus [2]) | MIC (Staphylococcus aureus [3]) | MIC (Staphylococcus aureus [4])
CC1=C\[C@@H](O)CC(=O)Cc2nc(co2)C(=O)N2CCC=C2C(=O)O[C@H](C(C)C)[C@H](C)/C=C/C(=O)NC\C=C\1 [VIRGINIAMYCIN FACTOR M1] | 4 µg/mL (≈ 7.61 µM) | 32 µg/mL (≈ 60.9 µM) | 4 µg/mL (≈ 7.61 µM) | 4 µg/mL (≈ 7.61 µM)
C=C[C@]1(C)C[C@@H](OC(=O)CSCCN(CC)CC)[C@]2(C)[C@H](C)CC[C@]3(CCC(=O)[C@H]32)[C@@H](C)[C@@H]1O [TIAMULIN] | 0.06 µg/mL (≈ 0.122 µM) | ≥ 128 µg/mL | 0.06 µg/mL (≈ 0.122 µM) | 0.06 µg/mL (≈ 0.122 µM)
NC[C@H]1O[C@H](O[C@H]2[C@H](O)[C@@H](O[C@H]3O[C@H](CO)[C@@H](O)[C@H](N)[C@H]3O)[C@H](N)C[C@@H]2N)[C@H](O)[C@@H](O)[C@@H]1O [KANAMYCIN] | 4 µg/mL (≈ 8.26 µM) | 32 µg/mL (≈ 66 µM) | 4 µg/mL (≈ 8.26 µM) | 32 µg/mL (≈ 66 µM)
CC[C@@H]1CCN[C@H](C(=O)N[C@@H]([C@H]2O[C@H](SC)[C@H](O)[C@@H](O)[C@H]2O)[C@H](C)Cl)C1 [PIRLIMYCIN] | 0.25 µg/mL (≈ 0.608 µM) | 4 µg/mL (≈ 9.73 µM) | 0.25 µg/mL (≈ 0.608 µM) | 0.25 µg/mL (≈ 0.608 µM)
NC[C@@H]1O[C@H](O[C@H]2[C@@H](O)[C@H](O[C@@H]3[C@@H](O)[C@H](N)C[C@H](N)[C@H]3O[C@H]3O[C@H](CN)[C@@H](O)[C@H](O)[C@H]3N)O[C@@H]2CO)[C@H](N)[C@@H](O)[C@@H]1O [FRAMYCETIN] | ≤ 1 µg/mL | 64 µg/mL (≈ 104 µM) | – | 64 µg/mL (≈ 104 µM)
C=C[C@]1(C)C[C@@H](OC(=O)CSC(C)(C)CNC(=O)[C@H](N)C(C)C)[C@]2(C)[C@H](C)CC[C@]3(CCC(=O)[C@H]32)[C@@H](C)[C@@H]1O [VALNEMULIN] | 0.03 µg/mL (≈ 0.0531 µM) | ≥ 128 µg/mL | 0.03 µg/mL (≈ 0.0531 µM) | 0.03 µg/mL (≈ 0.0531 µM)
CC[C@H]1OC(=O)[C@H](C)[C@@H](O[C@H]2C[C@@](C)(OC)[C@@H](O)[C@H](C)O2)[C@H](C)[C@@H](O[C@@H]2O[C@H](C)C[C@H](N(C)C)[C@H]2O)[C@](C)(O)C[C@@H](C)C(=O)[C@H](C)[C@@H](O)[C@]1(C)O [ERYTHROMYCIN] | 0.25 µg/mL (≈ 0.341 µM) | 0.25 µg/mL (≈ 0.341 µM) | 0.25 µg/mL (≈ 0.341 µM) | 0.25 µg/mL (≈ 0.341 µM)
CCC[C@@H]1C[C@@H](C(=O)N[C@@H]([C@H]2O[C@H](SC)[C@H](O)[C@@H](O)[C@H]2O)[C@@H](C)O)N(C)C1 [LINCOMYCIN] | 1 µg/mL (≈ 2.46 µM) | 64 µg/mL (≈ 157 µM) | 1 µg/mL (≈ 2.46 µM) | 1 µg/mL (≈ 2.46 µM)
CN(C)[C@@H]1C(O)=C(C(N)=O)C(=O)[C@@]2(O)C(O)=C3C(=O)c4c(O)cccc4[C@@](C)(O)[C@H]3C[C@@H]12 [TETRACYCLINE] | 0.06 µg/mL (≈ 0.135 µM) | 64 µg/mL (≈ 144 µM) | 64 µg/mL (≈ 144 µM) | 64 µg/mL (≈ 144 µM)
COc1cc(Cc2cnc(N)nc2N)cc(OC)c1OC [TRIMETHOPRIM] | 0.5 µg/mL (≈ 1.72 µM) | ≥ 512 µg/mL | ≥ 512 µg/mL | 0.5 µg/mL (≈ 1.72 µM)
CCC[C@@H]1C[C@@H](C(=O)N[C@@H]([C@H]2O[C@H](SC)[C@H](O)[C@@H](O)[C@H]2O)[C@H](C)Cl)N(C)C1 [CLINDAMYCIN] | ≤ 0.12 µg/mL | 2 µg/mL (≈ 4.71 µM) | – | –
